Values quoted from earlier work as cited in patent publication US20080124273A1, “Novel cationic metal complex radiopharmaceuticals” (priority 2004, published 2008).

What was measured:
[1] = background statement
[2] = background statement; remark: listed apart in the source

For `[C-]#[N+]CC(C)(C)OC.[C-]#[N+]CC(C)(C)OC.[C-]#[N+]CC(C)(C)OC.[C-]#[N+]CC(C)(C)OC.[C-]#[N+]CC(C)(C)OC.[C-]#[N+]CC(C)(C)OC.[Tc]` [^99mTc-Sestamibi], the first-pass extraction [1] is listed as “low” and the “uptake in liver and lungs” value [1] is listed as “high”.
For `CCOCCC[P]1(CCCOCC)CCN(CCOCC)CC[P](CCCOCC)(CCCOCC)[99Tc+]12(#[N])[S]C(N(CCOCC)CCOCC)=[S]2` [^99mTcN-DBODC6, [^99mTc(N)(N(CH2CH2OEt)2(PNP6)]^+], the lipophilicity [2] is listed as “high”, the T/B ratios [1] is listed as “poor” and the heart uptake [1] is listed as “very low”.
